Counter-ions that a name gives are not always drawn. Like-named read-outs stand apart in the source and are kept apart here.
Target: T1, human A3AR (Homo sapiens, UniProt P0DMS8)
T1 construct: expressed in transfected cells
T1 sequence (P0DMS8 1-318): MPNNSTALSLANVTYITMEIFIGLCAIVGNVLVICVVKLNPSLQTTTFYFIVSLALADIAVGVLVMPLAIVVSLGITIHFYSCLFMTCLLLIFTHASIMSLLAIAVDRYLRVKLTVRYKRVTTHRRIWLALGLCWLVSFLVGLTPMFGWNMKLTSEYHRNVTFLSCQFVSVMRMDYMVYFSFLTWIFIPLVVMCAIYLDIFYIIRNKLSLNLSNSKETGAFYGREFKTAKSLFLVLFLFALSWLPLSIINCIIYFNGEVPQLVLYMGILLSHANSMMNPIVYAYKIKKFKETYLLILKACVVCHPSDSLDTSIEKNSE
Assay: LOPAC library primary screen: single concentration (10 μM) inhibition of 25 nM CA200645 binding, PHERAstar FS

Row | Structure (SMILES) | % 25 nM CA200645 binding | other results
1 | NC(=O)c1cccc(N)c1 [3-aminobenzamide] |  | % 25 nM CA200645 binding (compounds tested at 10 µM, % of control wells (1% DMSO and 25 nM CA200645), […], mean ± SD, three experiments in duplicate): 91.6 ± 2.5%
2 | O=C1Nc2ccccc2/C1=C1/Nc2ccccc2/C1=N\O [Indirubin-3'-oxime] |  | % 25 nM CA200645 binding (% of control wells (1% DMSO and 25 nM CA200645), compounds at 10 µM, […], mean ± SD, three experiments in duplicate): 50.6 ± 24.7%
3 | CC1=C(CC(=O)O)c2cc(F)ccc2/C1=C\c1ccc(S(C)(=O)=O)cc1 [Sulindac sulfone] | 84.5 ± 13.2% | 
4 | Cc1ncsc1CCCl.Cl [Chlormethiazole hydrochloride] | 84.7 ± 21.7% | 
5 | CN(C)CC[C@@H](c1ccc(Cl)cc1)c1ccccn1 [(+)-Chlorpheniramine maleate] | 96.8 ± 6.2% | 
6 | Oc1ccc2ccccc2c1SSc1c(O)ccc2ccccc12 [IPA-3] | 63.1 ± 15.2% | 
7 | COc1cc2c(CCNC(C)=O)c[nH]c2cc1O [6-Hydroxymelatonin] | 94.1 ± 9.8% | 
8 | CN[C@@H]1C[C@@H](c2ccc(Cl)c(Cl)c2)c2ccccc21 [Indatraline hydrochloride] | 103.0 ± 8.6% | 
9 | COc1cc(/C=C(\C#N)C(=O)Nc2nnc(C(F)(F)F)s2)ccc1OCc1ccc(C(F)(F)F)cc1C(F)(F)F [XCT790] | 87.7 ± 9.0% | 
10 | CC(C)NCC(O)c1ccc(NS(C)(=O)=O)cc1.Cl (racemic) [(±)-Sotalol hydrochloride] | 93.5 ± 12.0% | 
11 | NCCc1c[nH]cn1 [Histamine dihydrochloride] | 102.0 ± 10.2% | 
12 | CN(C)c1nc(N)c(C(=O)NC(=N)N)nc1Cl [5-(N,N-Dimethyl)amiloride hydrochloride] | 95.5 ± 2.7% | 
13 | CNCCC(Oc1ccccc1OC)c1ccccc1 (stereo not drawn) [Nisoxetine hydrochloride] | 97.3 ± 6.5% | 
14 | CNCCc1cnc(CCC(c2ccccc2)c2ccccc2)[nH]1.O=C(O)C(=O)O.O=C(O)C(=O)O [N-Methylhistaprodifen dioxalate salt] | 99.4 ± 7.3% | 
15 | Nc1nc2c(ncn2CCOCP(=O)(O)O)c(=O)[nH]1 [PMEG hydrate] | 97.6 ± 14.8% | 
16 | CN(C)CCCN1c2ccccc2Sc2ccc(Cl)cc21 [Chlorpromazine hydrochloride] | 92.2 ± 10.3% | 
17 | CCN(CC)CCOc1ccc(Nc2ncc3cc(-c4c(Cl)cccc4Cl)c(=O)n(C)c3n2)cc1.O [PD-166285 hydrate] | 108.1 ± 4.5% | 
18 | Nc1nc(Cl)nc2c1ncn2[C@@H]1O[C@H](COP(=O)(O)OP(=O)(O)OP(=O)(O)O)C(O)C1O (stereo in doubt) | 89.5 ± 23.0% | 
19 | CCCCCCCCCCCCCCCCCCOCC(COP(=O)([O-])OCC[N+](C)(C)C)OC (stereo not drawn) [ET-18-OCH3] | 80.6 ± 4.5% | 
20 | CC[C@@]1(O)C(=O)OCc2c1cc1n(c2=O)Cc2cc3c(CN(C)C)c(O)ccc3nc2-1.Cl.O [Topotecan hydrochloride hydrate] | 102.0 ± 7.8% | 
21 | COc1ccc(-c2cc(=O)c3c(O)c(OC)c(OC)cc3o2)cc1O [Eupatorin] | 47.2 ± 12.7% | 
22 | COCCc1ccc(OCC(O)CNC(C)C)cc1.O=C(O)C(O)C(O)C(=O)O (racemic) [(±)-Metoprolol (+)-tartrate] | 83.3 ± 9.2% | 
23 | COc1ccc2c(c1O)-c1cccc3c1[C@@H](C2)N(C)CC3.Cl [R(-)-Apocodeine hydrochloride] | 70.5 ± 34.0% | 
24 | CC(C)C[C@H](NP(=O)([O-])O[C@H]1O[C@H](C)[C@@H](O)[C@H](O)[C@@H]1O)C(=O)N[C@@H](Cc1c[nH]c2ccccc12)C(=O)[O-].[Na+].[Na+] [Phosphoramidon disodium] |  | % 25 nM CA200645 binding (compounds tested at 10 µM, % of control wells (1% DMSO and 25 nM CA200645), whole live cells expressing the A3AR, mean ± SD, three experiments in duplicate): 101.2 ± 7.1%
25 | N=C(N)N/N=C/c1c(Cl)cccc1Cl [Guanabenz acetate] | 98.2 ± 11.7% | 
26 | Nc1nc2c(nc(Br)n2[C@@H]2O[C@@H]3COP(=O)([O-])O[C@H]3[C@H]2O)c(=O)[nH]1.[Na+] [8-Bromo-cGMP sodium] | 102.4 ± 7.4% | 
27 | Nc1ncnc2c1nc(Sc1ccc(Cl)cc1)n2C1OC2COP(=O)(O)OC2C1O (stereo in doubt) [8-(4-Chlorophenylthio)-cAMP sodium] | 91.8 ± 2.6% | 
